What all share (experiment): Bliss excess, mean over the matrix (fraction); higher = more synergy
Experiment [1] has as its system KMRC-1 (Kidney Carcinoma). The gist of the method:
(§1)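 After 24 hours at 37°C and 5% CO2 in 1536-well plates, cells in DMEM/F12 or RPMI plus 10% FBS received two-drug dose matrices for 72 hours. Viability came from CellTiter-Glo 2.0 luminescence and was scaled as inhibition, anchored at 0 by vehicle wells and at 1 by blank wells. Combination Emax is taken as the second-highest inhibition in the matrix, and Bliss excess as the observed combination effect less EA + EB − EA·EB, with EA and EB the single-agent effects.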

Experiment [2] deals with EFO-21 (Ovarian Carcinoma). An outline of the steps: as §1
Experiment [3] concerns NCI-H1092 (Small Cell Lung Carcinoma). The gist of the method: as §1
The subject of experiment [4] is SNU-387 (Hepatocellular Carcinoma). An outline of the steps: as §1
Another experiment deals with EW-1 (Ewing's Sarcoma). The gist of the method:
as §1

Experiment [5] relates to MOG-G-UVW (Low Grade Glioma). An outline of the steps: as §1
Experiment [6] relates to HAL-01 (B-Lymphoblastic Leukemia). An outline of the steps: as §1
For experiment [7], the system named is KOPN-8 (B-Lymphoblastic Leukemia). An outline of the steps: as §1
In experiment [8] the test system is SW872 (Other Solid Carcinomas). An outline of the steps:
as §1

For the next experiment, the system named is Hey (Ovarian Carcinoma). The gist of the method:
as §1

In experiment [9] the test system is HCC2998 (Colorectal Carcinoma). The gist of the method:
as §1

For experiment [10], the system named is MV-4-11 (Acute Myeloid Leukemia). The gist of the method:
as §1

Experiment [11] deals with EJM (Plasma Cell Myeloma). An outline of the steps:
as §1

Experiment [12] has as its system HCC1937 (Breast Carcinoma). An outline of the steps: as §1
Experiment [13] relates to SW982 (Other Solid Carcinomas). An outline of the steps:
as §1

Experiment [14] deals with KGN (Other Solid Carcinomas). The gist of the method:
as §1

In experiment [15] the test system is NCI-H1993 (Lung Adenocarcinoma). The gist of the method:
as §1

Experiment [16] has as its system CADO-ES1 (Ewing's Sarcoma). An outline of the steps:
as §1

Experiment [17] relates to Ca-Ski (Cervical Carcinoma). The gist of the method:
as §1

Take `CCc1c2c(nc3ccc(O)cc13)-c1cc3c(c(=O)n1C2)COC(=O)[C@]3(O)CC` [SN-38] + CN(C)CCCOc1ccc(-c2ccc3ncc4c(c3c2)n(C2CCOCC2)c(=O)n4C)cn1 [AZD0156] (first compound max 0.3 µM, 7x7, partner max 1 µM): the Bliss excess was 0.0671 in [1]; -0.0125 in [2]; -0.0472 in experiment [3]; -0.0373 in experiment [4]; 0.0608 with EW-1 (Ewing's Sarcoma); 0.0727 in [5]. The Bliss excess in experiment [6] came out at 0.0451; in experiment [7], 0.0362; in [8], 0.0048; in the experiment with Hey (Ovarian Carcinoma), 0.0372; in experiment [9], 0.253; in experiment [10], 0.0414. Also, the Bliss excess is -0.0052 in experiment [11]; 0.0605 in experiment [12]; -0.0208 in [13]; -0.0065 in experiment [14]; -0.0008 in experiment [15]; 0.0718 in [16]. Besides, the Bliss excess in [17] worked out at 0.0459.
Consider `CCc1c2c(nc3ccc(O)cc13)-c1cc3c(c(=O)n1C2)COC(=O)[C@]3(O)CC` [SN-38] + O=C(c1cc(Cc2n[nH]c(=O)c3ccccc23)ccc1F)N1CCN(C(=O)C2CC2)CC1 [Olaparib] (first compound max 0.3 µM, 7x7, partner max 10 µM), for which the Bliss excess was 0.0508 in [1]; 0.0601 in [2]; -0.0076 in [3]; -0.0372 in experiment [4]; 0.0642 in the experiment with EW-1 (Ewing's Sarcoma); 0.036 in experiment [5]. The Bliss excess in experiment [6] came to 0.0568; in experiment [7] it was 0.0271; in experiment [8], 0.0634; in the experiment with Hey (Ovarian Carcinoma), 0.0559; in experiment [10], 0.0486; in experiment [11], 0.0404. Further, the Bliss excess came out at 0.0384 in experiment [13]; 0.0691 in [14]; 0.0628 in experiment [15]; 0.0253 in [16]; 0.0458 in [17].
Consider `CC(=O)Nc1cccc(-n2c(=O)n(C3CC3)c(=O)c3c(Nc4ccc(I)cc4F)n(C)c(=O)c(C)c32)c1` [Trametinib] + Cc1nc(-c2cn3c(n2)-c2ccc(-c4cnn(C(C)(C)C(N)=O)c4)cc2OCC3)n(C(C)C)n1 [Taselisib] (first compound max 1 µM, 7x7, partner max 10 µM), for which the Bliss excess was 0.0072 in experiment [1]; 0.048 in experiment [2]; -0.0174 in [3]; 0.185 in experiment [4]; 0.038 in the experiment with EW-1 (Ewing's Sarcoma); -0.0446 in experiment [5]. The Bliss excess in experiment [6] was 0.147; in experiment [7], -0.101; in experiment [8], 0.0847; in the experiment on Hey (Ovarian Carcinoma), 0.0984; in experiment [9] it was 0.0408; in [10], 0.27. Further, the Bliss excess in experiment [11] is 0.142; in experiment [12] it was -0.0125; in [13], 0.0666; in experiment [14], 0.0972; in experiment [15], 0.0556; in experiment [16], -0.0253. Also, in experiment [17], the Bliss excess is 0.184.
Regarding `CC1(C)CCC(CN2CCN(c3ccc(C(=O)NS(=O)(=O)c4ccc(NCC5CCOCC5)c([N+](=O)[O-])c4)c(Oc4cnc5[nH]ccc5c4)c3)CC2)=C(c2ccc(Cl)cc2)C1` [Venetoclax] + C1CN(CCC1(C(=O)N[C@@H](CCO)C2=CC=C(C=C2)Cl)N)C3=NC=NC4=C3C=CN4 [Capivasertib] (first compound max 1 µM, 7x7, partner max 3 µM), the Bliss excess in experiment [1] was -0.028; in experiment [2] it was -0.131; in experiment [3], 0.0236; in [4], -0.0554; in the experiment on EW-1 (Ewing's Sarcoma) it was -0.0019; in experiment [5], -0.0404. Besides, the Bliss excess in experiment [6] was -0.0206; in experiment [7], -0.0009; in [8] it was -0.0588; in the experiment on Hey (Ovarian Carcinoma), -0.0504; in experiment [9], -0.0133; in [10] it was 0.0474. The Bliss excess in [11] is 0.0067; in [12], -0.0227; in experiment [13] it was -0.0523; in experiment [14] it was -0.0592; in experiment [15], -0.001; in [16], -0.0206. For the same molecule, the Bliss excess in experiment [17] was -0.0153.
Regarding `CC1(C)CCC(CN2CCN(c3ccc(C(=O)NS(=O)(=O)c4ccc(NCC5CCOCC5)c([N+](=O)[O-])c4)c(Oc4cnc5[nH]ccc5c4)c3)CC2)=C(c2ccc(Cl)cc2)C1` [Venetoclax] + C=CCn1c(=O)c2cnc(Nc3ccc(N4CCN(C)CC4)cc3)nc2n1-c1cccc(C(C)(C)O)n1 [AZD1775] (first compound max 1 µM, partner max 1 µM), the Bliss excess in [1] is -0.0126; in [2], 0.0233; in experiment [3], 0.0018; in [4], -0.0041; in the experiment with EW-1 (Ewing's Sarcoma), -0.0191; in [5], 0.0612. In addition, the Bliss excess in [6] is 0.0564; in experiment [7] it was -0.0079; in [8] it was 0.005; in the experiment on Hey (Ovarian Carcinoma) it was -0.0821; in [9] it was -0.0423; in experiment [10], -0.072. Also, the Bliss excess in experiment [11] was -0.0641; in experiment [12], -0.0744; in experiment [13], 0.018; in experiment [14] it was 0.0003; in [15] it was 0.0027; in [16], -0.0626. In addition, in experiment [17], the Bliss excess was 0.0449.
Regarding `CC1(C)CCC(CN2CCN(c3ccc(C(=O)NS(=O)(=O)c4ccc(NCC5CCOCC5)c([N+](=O)[O-])c4)c(Oc4cnc5[nH]ccc5c4)c3)CC2)=C(c2ccc(Cl)cc2)C1` [Venetoclax] + CCN(CCO)CCCOc1ccc2c(Nc3cc(CC(=O)Nc4cccc(F)c4)[nH]n3)ncnc2c1 [AZD2811] (first compound max 1 µM, 7x7, partner max 1 µM), the Bliss excess is -0.0456 in experiment [1]; -0.0263 in experiment [2]; 0.075 in experiment [3]; -0.0422 in experiment [4]; 0.0317 with EW-1 (Ewing's Sarcoma); -0.0186 in [5]. Moreover, the Bliss excess in experiment [6] was -0.0133; in [7] it was 0.0169; in experiment [8], -0.0179; in the experiment with Hey (Ovarian Carcinoma), 0.0408; in experiment [9], -0.0403; in experiment [10], 0.0071. The Bliss excess in [11] was 0.0261; in [12], -0.0394; in experiment [13] it was -0.0257; in experiment [14], -0.038; in [15], -0.0002; in experiment [16], 0.0054. In [17], the Bliss excess stood at 0.0738.
Consider `CC1(C)CCC(CN2CCN(c3ccc(C(=O)NS(=O)(=O)c4ccc(NCC5CCOCC5)c([N+](=O)[O-])c4)c(Oc4cnc5[nH]ccc5c4)c3)CC2)=C(c2ccc(Cl)cc2)C1` [Venetoclax] + CN(C)CCCOc1ccc(-c2ccc3ncc4c(c3c2)n(C2CCOCC2)c(=O)n4C)cn1 [AZD0156] (first compound max 1 µM, 7x7, partner max 1 µM), for which the Bliss excess was -0.0466 in [1]; -0.0375 in experiment [2]; -0.0023 in experiment [3]; -0.028 in experiment [4]; 0.0002 with EW-1 (Ewing's Sarcoma); 0.0408 in [5]. Further, the Bliss excess in experiment [6] is 0.0439; in experiment [7] it was -0.0498; in [8] it was 0.0025; in the experiment on Hey (Ovarian Carcinoma), -0.0255; in [9] it was -0.0292; in experiment [10], -0.0446. Moreover, the Bliss excess in experiment [11] is -0.0047; in experiment [12] it was -0.0566; in experiment [13] it was -0.086; in [14], -0.0172; in experiment [15], -0.0681; in experiment [16], -0.0204. Further, the Bliss excess in experiment [17] was 0.0221.
In the case of `CC1(C)CCC(CN2CCN(c3ccc(C(=O)NS(=O)(=O)c4ccc(NCC5CCOCC5)c([N+](=O)[O-])c4)c(Oc4cnc5[nH]ccc5c4)c3)CC2)=C(c2ccc(Cl)cc2)C1` [Venetoclax] + COc1cc(Nc2ncc3c(n2)-c2ccc(Cl)cc2C(c2c(F)cccc2OC)=NC3)ccc1C(=O)O [Alisertib] (first compound max 1 µM, 7x7, partner max 10 µM), the Bliss excess in [1] is -0.012; in [2], -0.0576; in experiment [3], 0.294; in [4], -0.0456; in the experiment on EW-1 (Ewing's Sarcoma), 0.174; in experiment [5], -0.0265. For the same molecule, the Bliss excess in experiment [6] is 0.121; in experiment [7], 0.036; in [8], 0.0428; in the experiment on Hey (Ovarian Carcinoma), -0.0449; in experiment [9], 0.0056; in experiment [10], 0.0134. The Bliss excess in experiment [11] is -0.0024; in experiment [12], -0.0852; in experiment [13] it was -0.0524; in [14], -0.0167; in [15], -0.029; in [16], 0.032. In addition, the Bliss excess in [17] is 0.0128.

The record behind these values is the supplement of paper PMC11061612.
